From ChEMBL document CHEMBL1201862, “PubChem BioAssay data set” (2004)
Active and inactive are the calls of the source.

Tests used:
[1] = biological target: T1, Alkaline phosphatase, tissue-nonspecific isozyme (Homo sapiens, UniProt P05186); assay: TNAP enzyme activators, dose response, selectivity assay for mouse IAP activator project, biochemical, TNAP isozyme, mouse IAP uHTS hits (AID 488880); assay type: functional
T1 sequence (P05186 whole entry): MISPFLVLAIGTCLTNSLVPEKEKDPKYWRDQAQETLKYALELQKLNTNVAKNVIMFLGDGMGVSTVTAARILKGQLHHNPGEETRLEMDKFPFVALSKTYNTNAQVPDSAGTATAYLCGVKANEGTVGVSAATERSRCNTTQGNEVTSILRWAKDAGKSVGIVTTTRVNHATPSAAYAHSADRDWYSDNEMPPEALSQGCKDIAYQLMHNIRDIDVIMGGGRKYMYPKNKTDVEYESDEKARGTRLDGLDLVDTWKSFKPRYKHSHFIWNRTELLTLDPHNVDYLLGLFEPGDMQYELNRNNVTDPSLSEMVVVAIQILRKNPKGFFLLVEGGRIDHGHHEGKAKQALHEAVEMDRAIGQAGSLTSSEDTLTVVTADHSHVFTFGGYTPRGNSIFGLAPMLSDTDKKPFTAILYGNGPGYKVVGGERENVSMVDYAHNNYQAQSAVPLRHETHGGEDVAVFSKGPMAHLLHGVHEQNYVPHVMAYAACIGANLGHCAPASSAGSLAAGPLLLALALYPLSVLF

[2] = biological target: Intestinal-type alkaline phosphatase (Homo sapiens, UniProt P09923); assay: activation of human intestinal alkaline phosphatase – biochemical, dose response (AID 488873); assay type: functional
Troponin, cardiac muscle = Troponin, cardiac muscle (Homo sapiens, UniProt P19429+P45379+P63316); assay: Fluorescence-based biochemical high throughput dose response assay for activators of the calcium sensitivity of cardiac Regulated Thin Filaments (RTF). [Related pubchem assays (depositor defined):AID493008, AID493018, AID504382, AID504383]; assay type: protein-complex assay
Keap1/Nrf2 = Keap1/Nrf2 (Homo sapiens, UniProt Q14145); assay: Keap1-Nrf2 protein-protein interaction inhibitors, dose response, biochemical, fluorescence polarization, cherry-picked samples (AID 588683)
[3] = biological target: Intestinal-type alkaline phosphatase (Mus musculus, UniProt P24822); assay: mouse intestinal alkaline phosphatase activators, dose response, biochemical, luminescence, uHTS hits (AID 488783); assay type: functional
[4] = biological target: Bifunctional protein GlmU (Mycobacterium tuberculosis, UniProt P9WMN3); assay: Inhibitors of Mycobacterial Glucosamine-1-phosphate acetyl transferase (GlmU). Secondary screen.; set-up: species or system Mycobacterium tuberculosis H37Rv
Large T antigen = Large T antigen (Simian virus 40, UniProt P03070); assay type: functional, Betapolyomavirus macacae;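 further: Confirmatory-stage PubChem screen for compounds that inhibit SV40 T antigen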
[5] = biological target: T2, Dual specificity protein phosphatase 3 (Homo sapiens, UniProt P51452); assay: SAR VHR1 absorbance Assay for In Vitro dose response studies. [Related pubchem assays (depositor defined):AID1654, AID1661, AID1878, AID1992, AID2004]
[6] = biological target: T3, Tyrosine-protein phosphatase non-receptor type 22 (Homo sapiens, UniProt Q9Y2R2); assay: LYP (PTPN22) phosphatase inhibitor potency, SAR follow-up, biochemical, pCAP fluorogenic substrate, fluorescence, set 3 (AID 449727); assay type: functional
T3 sequence (Q9Y2R2 whole entry): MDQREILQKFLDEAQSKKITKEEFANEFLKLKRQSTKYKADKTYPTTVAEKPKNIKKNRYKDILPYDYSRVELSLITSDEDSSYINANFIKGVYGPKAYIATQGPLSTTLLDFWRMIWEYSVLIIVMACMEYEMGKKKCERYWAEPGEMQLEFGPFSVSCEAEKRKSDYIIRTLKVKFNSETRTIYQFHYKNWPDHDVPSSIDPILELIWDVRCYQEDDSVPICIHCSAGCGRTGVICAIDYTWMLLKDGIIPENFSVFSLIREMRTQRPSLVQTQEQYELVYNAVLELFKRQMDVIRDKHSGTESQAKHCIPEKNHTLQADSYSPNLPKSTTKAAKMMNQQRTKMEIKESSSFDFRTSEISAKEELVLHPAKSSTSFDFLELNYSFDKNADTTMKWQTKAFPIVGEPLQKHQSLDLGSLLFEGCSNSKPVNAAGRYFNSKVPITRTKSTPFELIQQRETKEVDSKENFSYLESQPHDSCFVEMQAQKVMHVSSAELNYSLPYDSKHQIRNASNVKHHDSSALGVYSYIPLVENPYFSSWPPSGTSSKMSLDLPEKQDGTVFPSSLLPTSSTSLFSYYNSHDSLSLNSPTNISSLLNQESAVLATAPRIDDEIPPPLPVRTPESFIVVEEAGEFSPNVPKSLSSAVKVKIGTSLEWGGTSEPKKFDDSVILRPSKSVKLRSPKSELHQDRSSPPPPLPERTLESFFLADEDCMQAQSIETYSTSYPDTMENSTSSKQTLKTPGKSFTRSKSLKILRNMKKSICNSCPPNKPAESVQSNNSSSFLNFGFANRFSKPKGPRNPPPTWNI

Genome polyprotein = Genome polyprotein (dengue virus type 2, UniProt P29990); assay: Dengue-2 NS5 methyltransferase inhibitors, primary screen, biochemical, confirmation dose response (AID 588689); assay type: functional
[7] = biological target: T3, Tyrosine-protein phosphatase non-receptor type 22; assay: SAR LYP1 Fluorescent Assay using OMFP substrate for In Vitro dose response studies - Set 3. [Related pubchem assays (depositor defined):AID1779, AID1784, AID2140, AID2686]; assay type: functional
[8] = biological target: T4, Apoptotic protease-activating factor 1 (Homo sapiens, UniProt O14727); assay: activation of Apaf-1 mediated apoptosis – fluorescent, uHTS hits, dose response (AID 588554); assay type: functional
T4 sequence (O14727 whole entry): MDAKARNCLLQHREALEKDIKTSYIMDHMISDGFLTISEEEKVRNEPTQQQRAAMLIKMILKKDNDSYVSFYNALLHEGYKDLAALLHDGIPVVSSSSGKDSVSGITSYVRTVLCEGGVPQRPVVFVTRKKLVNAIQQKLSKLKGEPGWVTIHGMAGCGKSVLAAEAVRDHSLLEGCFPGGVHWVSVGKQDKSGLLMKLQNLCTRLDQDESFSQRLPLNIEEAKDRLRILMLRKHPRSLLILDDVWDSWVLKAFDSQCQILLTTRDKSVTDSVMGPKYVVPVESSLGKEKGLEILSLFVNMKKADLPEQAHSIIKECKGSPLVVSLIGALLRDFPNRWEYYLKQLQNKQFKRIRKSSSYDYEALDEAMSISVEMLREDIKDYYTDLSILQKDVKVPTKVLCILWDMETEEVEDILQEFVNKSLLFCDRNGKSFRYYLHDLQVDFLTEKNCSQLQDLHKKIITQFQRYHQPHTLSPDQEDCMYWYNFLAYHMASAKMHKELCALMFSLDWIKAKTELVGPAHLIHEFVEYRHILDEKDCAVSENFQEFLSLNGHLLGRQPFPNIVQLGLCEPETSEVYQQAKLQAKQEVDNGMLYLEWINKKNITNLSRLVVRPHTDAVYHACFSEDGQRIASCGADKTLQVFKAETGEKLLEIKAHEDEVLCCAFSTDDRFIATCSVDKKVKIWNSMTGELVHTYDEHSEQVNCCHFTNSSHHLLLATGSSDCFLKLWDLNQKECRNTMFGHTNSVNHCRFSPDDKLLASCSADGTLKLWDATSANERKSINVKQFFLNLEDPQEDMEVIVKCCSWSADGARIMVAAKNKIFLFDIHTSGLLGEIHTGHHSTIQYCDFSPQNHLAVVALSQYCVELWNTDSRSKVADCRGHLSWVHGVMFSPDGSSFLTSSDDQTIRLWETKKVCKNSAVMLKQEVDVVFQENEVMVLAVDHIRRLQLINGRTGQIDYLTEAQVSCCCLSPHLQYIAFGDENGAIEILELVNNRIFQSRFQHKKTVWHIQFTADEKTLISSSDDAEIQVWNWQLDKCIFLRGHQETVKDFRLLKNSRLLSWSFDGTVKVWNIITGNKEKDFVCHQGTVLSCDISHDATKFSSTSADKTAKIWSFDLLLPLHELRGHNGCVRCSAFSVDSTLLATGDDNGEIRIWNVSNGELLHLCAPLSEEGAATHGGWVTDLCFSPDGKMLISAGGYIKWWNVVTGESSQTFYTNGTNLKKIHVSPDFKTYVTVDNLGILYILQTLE

[9] = biological target: T5, Dual specificity protein phosphatase 6 (Rattus norvegicus, UniProt Q64346); assay type: functional;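 further: confirmatory in vitro dose-response testing of MKP-3 inhibition; recombinant His-tagged MKP-3 made in E. coli BL21 with OMFP substrate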
T5 sequence (Q64346 whole entry): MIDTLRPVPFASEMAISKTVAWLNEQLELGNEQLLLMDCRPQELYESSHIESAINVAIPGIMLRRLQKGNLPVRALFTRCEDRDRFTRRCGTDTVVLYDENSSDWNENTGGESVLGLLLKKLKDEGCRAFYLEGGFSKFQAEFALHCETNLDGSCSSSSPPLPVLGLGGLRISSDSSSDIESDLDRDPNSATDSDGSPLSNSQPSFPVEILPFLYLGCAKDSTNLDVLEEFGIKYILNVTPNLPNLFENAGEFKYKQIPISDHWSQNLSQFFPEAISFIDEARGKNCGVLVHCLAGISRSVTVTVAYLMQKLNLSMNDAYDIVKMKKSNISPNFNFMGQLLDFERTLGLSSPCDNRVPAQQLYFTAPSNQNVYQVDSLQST

[10] = biological target: Tyrosine-protein phosphatase non-receptor type 12 (Homo sapiens, UniProt Q05209); assay: SAR Selectivity Analysis of small molecule inhibitors of PEST using pCAP in a fluorescence assay. [Related pubchem assays (depositor defined):AID1779, AID1784, AID2135]; assay type: functional
[11] = biological target: T6, Tyrosine-protein phosphatase non-receptor type 7 (Homo sapiens, UniProt P35236); assay: redox-dependent HePTP inhibition, mechanism study, biochemical, fluorescence (AID 2068); assay type: functional
T6 sequence (P35236 whole entry): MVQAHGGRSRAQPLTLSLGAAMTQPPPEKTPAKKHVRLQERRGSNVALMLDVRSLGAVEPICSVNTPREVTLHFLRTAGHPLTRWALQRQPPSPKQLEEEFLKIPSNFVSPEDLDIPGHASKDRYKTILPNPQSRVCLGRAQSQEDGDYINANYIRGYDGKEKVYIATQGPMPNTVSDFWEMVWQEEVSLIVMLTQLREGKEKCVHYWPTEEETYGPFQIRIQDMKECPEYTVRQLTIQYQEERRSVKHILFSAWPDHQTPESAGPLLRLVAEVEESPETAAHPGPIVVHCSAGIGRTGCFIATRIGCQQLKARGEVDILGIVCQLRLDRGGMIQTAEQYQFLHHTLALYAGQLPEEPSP

[12] = biological target: T2, Dual specificity protein phosphatase 3; assay: SAR VHR1 Fluorescent Assay for In Vitro dose response studies. [Related pubchem assays (depositor defined):AID1654, AID1661, AID1878, AID1992, AID2004, AID2070, AID2085]; assay type: functional
[13] = biological target: T5, Dual specificity protein phosphatase 6; assay: MKP-3 phosphatase inhibitors, primary screen, biochemical, rat enzyme, in vitro (AID 425)
[14] = biological target: T2, Dual specificity protein phosphatase 3; assay: VHR1 phosphatase inhibitors, primary screen, biochemical, absorbance, uHTS (AID 1654)
[15] = biological target: T2, Dual specificity protein phosphatase 3; assay: VHR1 phosphatase inhibitors, biochemical (AID 1878)
[16] = biological target: T2, Dual specificity protein phosphatase 3; assay: SAR VHR1 Fluorescent Assay for In Vitro dose response studies Set 3. [Related pubchem assays (depositor defined):AID1654, AID1661, AID1878]; assay type: functional
Jurkat = assay: antigen receptor-induced NF-kB inhibitors, dose response, Jurkat, luciferase reporter, luminescence, B- and T-cell (AID 489004); assay type: functional, cell-based; conditions: Homo sapiens;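 further: NF-kB luciferase reporter Jurkat cells stimulated with PMA plus ionomycin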
[17] = biological target: Cyclin-dependent kinase 5/CDK5 activator 1 (Homo sapiens, UniProt Q00535); assay: CDK5/p35 kinase inhibitors, dose response, biochemical, cherry-picked samples, set 2 (AID 504545)
[18] = cytotoxicity in HEK-293T NF-kB-Luc cells, dose response, cytotoxicity control for B/T-cell NF-kB inhibitor project, cell-based, uHTS hits (AID 489019); assay type: functional;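 further: IC50 reflects cytotoxicity as loss of cell viability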

Compound: Cc1ccc(/C=C2/SC(=O)NC2=S)o1
- EC50 [1]: 45.5 µM (active)
- EC50 [2]: 41.4 µM (active)
- EC50 (Troponin, cardiac muscle): 17.9 µM (inactive)
- AC50 (Keap1/Nrf2): > 52 µM (inactive)
- EC50 [3]: 21.8 µM (active)
- IC50 [4]: 170 µM (active)
- IC50 (Large T antigen): > 100 µM (active)

Compound: CCc1ccc(NC2=NC(=O)/C(=C/c3cc(Br)c(OCC(=O)O)c(OC)c3)S2)cc1
- IC50 [5]: 3.62 µM (active)
- IC50 [6]: 6.74 µM (active)
- IC50 (Genome polyprotein): 39.5 µM (active)
- IC50 [7]: 10.3 µM (active)
- EC50 [8]: 15.8 µM (active)
- IC50 [9]: 44.9 µM (active)
- IC50 [10]: 2.78 µM (active)
- IC50 [11]: 0.28 µM (active)
- IC50 [12]: 0.878 µM (active)
- IC50 [13]: 84.5 µM (active)
- IC50 [14]: 10.5 µM (active)
- IC50 [15]: 3.93 µM (active)

Compound: Cc1cc(Cl)cc2sc(N(Cc3cccnc3)C(=O)c3cccc(N4C(=O)CCC4=O)c3)nc12
- IC50 [16]: 58.2 µM (active)

Compound: C=CC(=O)Nc1ccc(Nc2nc(N[C@H]3CC[C@H](N(C)C)CC3)nc3c2ncn3C(C)C)cc1
- IC50 (Jurkat): 0.17 µM (active)
- AC50 [17]: 1.48 µM (active)
- IC50 [18]: > 80 µM (inactive)
